The target in one data set is Aptamer-21. As to conditions: Lau et al., ACS Nano 2011; read-out: Kd of Aptamer-21 against compound 1b; cited from earlier work.
Data set [1] has as its target Aptamer 21. Kind of data set: Surface plasmon resonance (SPR) binding to Aptamer 21. The following applies: listed as ARK-139. From the text:
(§1) Surface plasmon resonance (SPR) may be used to screen ligands and hook and click constructs for binding to a target RNA of interest. SPR is especially useful for monitoring biomolecular interactions in real time. Typically, target species and unrelated control are immobilized to a sensor chip, then analytes (compounds/fragments) are flowed over the surface. Binding of the compound to target species results in increase of SPR signal (association phase). Washing away bound compound with buffer results in a decrease of SPR signal (dissociation phase). Fitting of sensorgrams recorded at different compound concentrations is performed to an appropriate interaction model. The method allows extraction of kinetic parameters (ka, kd→KD). Requirements/limitations include that the ka/kd values be in reasonable ranges; and the target size must not be too large (<100 kDa). It is an excellent method to screen fragments and profile or validate hits. BC4000 may be used for primary screening (up to 4,000 data pts/week). Biacore T200 is suitable for hit profiling and validation.
In the PEARL-seq context, SPR allows monitoring binding of “hooks” to DNA/RNA aptamers. The target species is immobilized to sensor chip, analytes (i.e. hooks) are flowed over surface (association phase), DNA/RNA aptamer is flowed over surface (plateau phase), competitor compound is washed over surface (dissociation phase), thus yielding binding data.
Experiments were performed on a MASS-2 (Sierra Sensors) at 25° C. A high capacity amine chip was equilibrated with PBS. The chip was conditioned with alternating injections of 10 mM HCl and 10 mM NaOH in 1 M NaCl. The carboxymethylated dextran of the surface of the amine chip was activated for 7 minutes at a flow rate of 10 μL/min using a 1:1 volume ratio of 0.4 M 1-ethyl-3-(3-dimethylaminopropyl) carbodiimide (Sierra) and 0.1 M N-hydroxysuccinimide (Sierra). Neutravidin (70 μg/mL, Thermofisher) was injected over the activated surface for 10 minutes at a flow rate of 10 μl/min. Excess activated groups were blocked by an injection of 1 M ethanolamine, pH 8.5 (Sierra) for 7 minutes at a flow rate of 10 μl/min. A final injection of 10 mM NaOH in 1 M NaCl for 7 minutes at 10 μl/min was used to remove any unbound material to the chip. The immobilization reaction typically yielded approximately 12,000 resonance units (RU) of neutravidin. At least one spot in a channel was not injected with RNA and was used as a background control. Unrelated RNA was also used as a background control.
A 1 μM sample of biotin-aptamer 21 was prepared in RNAse free water, heated to 95° C. for 3 minutes, cooled on ice for 4 minutes, diluted with an equal volume 2× folding buffer (40 mM Tris-HCl, pH 8.0, 6 mM MgCl2, 200 mM KCl), and incubated at 37° C. for 30 minutes. The final concentration of RNA was 0.5 μM.
The MASS-2 was primed 2 times with 20 mM Tris-HCl, pH 8.0, 3 mM MgCl2, 100 mM KCl (Capture Buffer). RNA was injected over the neutravidin surface for 7 minutes at a flow rate of 10 μl/min. Capture levels typically reached approximately 3500-4500 of resonance units of aptamer 21.
Compounds were diluted 2-fold in 100% DMSO at a starting concentration of 500 μM.
The MASS-2 was primed 2 times with 20 mM Tris-HCl, pH 8.0, 3 mM MgCl2, 100 mM KCl, 1% DMSO (running buffer). Prior to testing compounds 3 injections of running buffer were used to equilibrate the sensor surface. […]

The conditions of data set [2]: cited from earlier work.
In the next data set the test system is Aptamer 21-E. Kind of data set: SPR binding to mutant Aptamer 21-E. The following applies: data not shown; listed as ARK-139.
Excerpt: as §1
Experiments were performed on a MASS-2 (Sierra Sensors) at 25° C. A high capacity amine chip was equilibrated with PBS. The chip was conditioned with alternating injections of 10 mM HCl and 10 mM NaOH in 1 M NaCl. […]
On the technique in general: In SPR one partner is held on a chip, and binding of the other changes the refractive index at the surface.

The test system of data set [3] is Aptamer 21. In words: Competition between Aptamer 21 photoprobes and RNA-binding ligands (RT pausing). As for the experimental part:
Aptamer 21 was either incubated with probe alone (ARK-581) or probe plus a 10-fold excess of RNA-binding ligand.
Both ARK-852 and ARK-139 inhibit the photocrosslinking of probes to Aptamer 21.
Folded RNA (1 μM) was incubated with the photoaffinity probe (10 μM) in total 25 μL of buffer (20 mM TrisHCl pH 8, 100 mM KCl, 3 mM MgCl2) with 2.5% DMSO for 30 min at 37° C. to allow binding to come to equilibrium. The sample was then irradiated with long wave UV light (˜365 nm) for 30 min in a UV crosslinker (Fisher Scientific).
A 3.75 μL aliquot of 10 μM reverse transcription primer was added to the cross-linked RNA sample, which was then incubated for 5 min at 65° C. and then cooled on ice. The sample was then diluted to a final volume of 60 μL and final buffer concentration of 1× Protoscript-II buffer (New England Biolabs), 0.5 mM dNTPs, 10 mM DTT, 0.4 U/μL RNase Inhibitor (New England Biolabs), and 10 U/μL Protoscript-II (New England Biolabs). The reaction was incubated at 45° C. for 2 h, 65° C. for 20 min, and then 4° C.
The RNA was hydrolyzed by the addition of 4.8 μL of 2.5 M NaOH and heating at 95° C. for 5 min. The reaction was quenched by the addition of 0.9 μL of acetic acid. The cDNA was precipitated by the addition of 6.6 μL of 3 M sodium acetate pH 5 and 181 μL ethanol, cooling to −80° C. for 1 h, and then centrifuging at 20,500×g at 4° C. for 30 min. The cDNA pellet was washed twice with 500 μL of 70% ethanol and then air dried for 5 min.
The cDNA pellet was resuspended in 12 μL of 1×TBE-urea sample loading buffer (Bio-Rad) and heated to 95° C. for 5 min. The sample was then run on a pre-cast 8.6×6.7 cm TBE-urea 10% PAGE gel (Bio-Rad) at 120 V until the lower bromophenol blue dye reached the bottom of the gel. The gel was stained with 1×SYBR-gold (Invitrogen) in 1×TBE buffer at room temperature for 20 min covered from light. The gel fluorescence was imaged on an Azure c600 instrument.

Values joined by “and” are separate entries in the source; they are usually repeats but may differ in a detail not shown here. Equal entries are not always repeated. “Also recorded” adds a separate entry of the source.

For `COC(=O)C1=C(COCc2cn(CCOCCOCCO)nn2)NC(c2ccncc2)=NC1c1ccc(F)cc1Cl` (racemic) [I-1], the Kd (usually a measure of binding affinity in units of concentration) is 0.05 µM at Aptamer-21; 0.568 µM and 0.42 µM at Aptamer 21 [1] (binding to Aptamer 21, read-out: calculated KD by SPR). Besides, the “binding to Aptamer 21 by SPR” value in the data set with Aptamer 21 [1] is “binds; also recorded: SPR-active”. Moreover, in data set [2], the water solubility entry was “water-soluble”. For the same compound, the “binding to Aptamer 21-E by SPR” value in the data set on Aptamer 21-E is listed as “not to bind; also recorded: did not bind”. For the same compound, in the data set with Aptamer 21 [3] (10-fold excess of RNA-binding ligand over probe), the “inhibition of photocrosslinking of ARK-581 to Aptamer 21” value was “efficiently inhibited”. In the data set with Aptamer 21 [3] (FIG. 65), the “inhibition of photocrosslinking of probes to Aptamer 21 (RT pausing competition assay)” value is “inhibit”.
